Experimental findings from patent US20120016014A1, “BENZOTHIOPHENE CARBOXAMIDE COMPOUNDS, COMPOSITION AND APPLICATIONS THEREOF” (INDIAN INSTITUTE OF SCIENCE, priority 2010, published 2012) are described below.

Structures are written as SMILES. Where “and” joins values, the source holds several entries; their conditions need not be identical. Equal entries are not always repeated. Where two headings read alike, the source gives them in different places.

One may read the IC50 as the concentration at which inhibition is half-maximal. The Ki is a measure of affinity in units of concentration, obtained from inhibition or displacement. A high value points to lower affinity.

In test [1] the test system is blood-stage P. berghei ANKA. The test is described as follows: Experimental cerebral malaria in C57BL/6 mice. Conditions: for Relative efficacy in the route of administration study: 5 mg/kg body weight, 6 days treatment; for Mean Survival Days (Observed for 25 days): 5 mg/kg body weight daily for six days, C57BL/6 mice. Type of test: in vivo. The protocol: C57BL/6 mice were infected with blood-stage P. berghei ANKA as discussed in the experimental section. After 24 hours of infection mice were treated intravenously with various doses of inhibitors. It was observed that all control mice developed hypothermia by day 2, ataxia and convulsions by day 3 and died by day 6, whereas inhibitor treated groups had considerably higher longevity (11-24 days). Though each group of mice developed hypothermia by day 4, convulsions and ataxia development were delayed in case of treated mice. […] The mice treated with 2.5 mg/kg body weight survived for 18 days. Even at or below 1 mg/kg body weight of inhibitor dose, the mice survived for 11 days, but paralysis and ataxia development occurred on Day 7.
[…]. The mice were treated for 6 days. […]. Chloroquine was used as the control drug. […].
Therefore, compounds 10 and 11 were also administered at 5 mg/Kg body weight. The compounds were administered through intraperitoneal, peroral, subcutaneous and intravenous routes. Compound 10 and 11 were administered once daily for 6 days. […]. The mean survival days for this treatment group was 16 (FIG. 12c and Table III). […]. Chloroquine was used as the control drug.

Test [2] concerns the target T1, purified PfENR (Plasmodium falciparum, UniProt Q9BH77).
T1 sequence (Q9BH77 22-432): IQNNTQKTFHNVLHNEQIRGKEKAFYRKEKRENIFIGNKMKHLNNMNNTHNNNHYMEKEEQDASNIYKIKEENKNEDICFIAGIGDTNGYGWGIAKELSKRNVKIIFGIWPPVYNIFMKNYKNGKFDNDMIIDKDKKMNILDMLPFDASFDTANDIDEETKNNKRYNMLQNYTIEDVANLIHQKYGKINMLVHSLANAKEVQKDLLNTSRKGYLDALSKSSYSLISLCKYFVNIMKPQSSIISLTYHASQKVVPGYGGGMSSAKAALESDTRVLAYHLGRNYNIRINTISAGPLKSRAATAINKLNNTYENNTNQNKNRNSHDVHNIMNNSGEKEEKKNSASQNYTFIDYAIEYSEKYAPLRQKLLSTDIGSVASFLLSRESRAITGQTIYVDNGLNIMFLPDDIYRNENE
The test is described as follows: PfENR inhibition, standard enzyme assay. In kind it is biochemical. The protocol:
(§1) PfENR activity was determined using standard assay described earlier.

Test [3] has as its system Plasmodium falciparum 3D7. The test can be described thus: In vitro inhibition of P. falciparum 3D7 blood-stage parasites. Conditions: for IC50: read-out: P. falciparum (IC50 μM); for Stage of parasite growth arrest / Parasites observed to be dead: 2.5 μM; for Stage of parasite growth arrest: added at ring stage, P. falciparum 3D7; for Parasites observed to be dead: synchronised ring stage culture of P. falciparum 3D7. Type of test: cell-based. The protocol: Benzothiophene carboxamide derivatives of the present invention were checked for their anti-parasitic activity against 3D7 (chloroquine sensitive strain) in an in vitro culture. […] To find out parasite stage where these compounds act, synchronised ring stage culture of P. falciparum was treated with 2.5 μM concentration of compounds 6 and 7. […] When compounds 6 and 7 were added at the trophozoite stage the cells could not proceed to the schizont stage indicating the growth inhibition occurs at trophozoite stage.
Synchronised culture of P. falciparum 3D7 was treated with 2.5 μM compound 10 and 11 at the ring stage.

For test [4], the target named is T1, purified PfENR. The test can be described thus: PfENR inhibition kinetics, cofactor potency and progress curve analysis. In kind it is biochemical. The protocol: as §1
The accumulation of product further decreased when compound 6 was preincubated with the enzyme (curve c). On addition of NAD+ to this reaction the rate of product accumulation further decreased (curve d).
Progress curves for inhibition by varying concentrations of compounds 6 and 7 were examined in detail (FIGS. 16a and 16b). From the progress curve analyses, it was inferred that for each concentration of the inhibitors the initial and the steady state velocity decreased exponentially with time. At higher inhibitor concentration, steady state is reached rapidly with a decrease in steady state velocity (vs). […] Progress curves were analysed using equation 3a from which a series of Kobs values were obtained for each concentration of inhibitor.

A further test in a line: Tail flick latency test. As to conditions: 15 mg/kg b. wt. vs Ibuprofen 50 mg/kg b. wt., 30 min and 60 min post injection.
A short description of test [5]: Mechanical hyperalgesia, Randall-Selitto, carrageenan induced. In kind it is in vivo, rats. Conditions: 15 mg/kg b wt., after 1 hrs, basal level in 5 hrs. The method, then: Mechanical hyperalgesia was measured as hind limb withdrawal threshold in response to a mechanical stimulus applied to hind paws of rat using Randall-selitto meter, Randall and Selitto, 1957. To determine the mechanical hyperalgesia, the force was applied with increased pressure at a constant rate until the animal withdrew its limb. The base line nociceptive threshold was measured before induction of hyperalgesia. Moreover, hyperalgesia was induced by carrageenan and then groups of animal were treated with compound 4, compound 6 and compound 8 (15 mg/kg body weight) and Ibuprofen (50 mg/kg body weight). Control group was treated with physiological saline. […] The anti-nociceptive efficacy of the compounds has been evaluated the efficacy with paw withdrawal threshold latency of animals.

Test [6] can be described thus: Hot plate latency test (thermal hyperalgesia). Type of test: in vivo, rats. Conditions: for MPE index, hot plate latency assay: 15 mg/kg b. wt. i.p., 30 and 60 min; for Anti-nociceptive response, hot plate latency assay: known NSAIDs. The protocol: The animals were housed in an animal house facility of National Institute of Immunology, India, with controlled temperature (22±2° C.) under a 12/12 h light/dark cycle. They had free access to food and water ad libitum. All experiments were conducted according to the guidelines of the international association for the study of pain and approved by the institutional ethical committee for animal research. All in vivo experiments were carried out on inbred male […] rats ( 200-320 g body weight). Same age and equal body weight of animals were used according to experiments. No animals were used for more than one experiment. Most popular non-steroidal anti-inflammatory drugs which are widely use for treatment of chronic and inflammatory pain, such as Ibuprofen, Naproxen, Ketoprofen, Aspirin, Nimesulide, Indomethacine were purchased from Cayman Chemicals, USA and used to evaluate the efficacy of drugs in animal model. These drugs and different derivatives of Benzothiophene were dissolved in minimum volume of Dimethyl sulfoxide (DMSO) and further diluted in Phosphate buffer saline prior to use. […] Withdrawal latency for tail flicking was measured. […] NSAIDs is commonly evaluated by hot plate latency assay whereby animals are exposed to thermal stimulus (54 degree […] time for hind paw licking is measured as behavioural response for pain.

[7] abbreviates: read-out: Inhibition of PfENR (IC50 μM).
Setting [8] is: Erythrocyte, growth inhibition, red blood cell stages of Plasmodium falciparum 3D7 (chloroquine sensitive).

Procedure for Tail flick latency test: Hot plate latency test was performed under red light on the metal surface of hot plate analgesia meter (IITC, Life science, CA). Animals were placed individually on the surface of hot plate maintained at a constant temperature 54±1° C. The anti-nociceptive response was latency recorded from the time when animal was placed on the heated surface until the behavior response show licking of hind paw to avoid thermal nociception. A maximum hot plate latency of 30 sec was used for each animal to prevent paw tissue damage. Base line nociceptive latency was obtained for each animal prior to any drug administration. Thereafter, groups of animals were treated with different concentration of different derivatives of benzothiophene and well known NSAIDs. […] Subsequent nociceptive response latency for each animal was determined at 30 and 60 min after drug administration. […] In continuation of tail flick latency assay, the anti-nociceptive effect of the compounds was monitored. Rats treated as described above were subjected to determination of thermal nociceptive pain. Rats were confined in restrainer and allowed to accommodate. The tail withdrawal test consisted of immersing the posterior 8-10 cm of the tail in hot water bath maintained at 54±1° C. Withdrawal latency for tail flicking was measured. A maximum tail flick latency of 20 sec was permitted to minimize tissue damage.

As to `CCN(CC)CCCC(C)Nc1ccnc2cc(Cl)ccc12` (stereo not drawn) [Chloroquine, reference compound], the “Relative efficacy in the route of administration study” value in test [1] was “more effective via intravenous and subcutaneous routes compared to oral administration”. The “Mean Survival Days (Observed for 25 days)” value (shortened to “Mean Survival Days”) was 20 ± 1.5 days in test [1] (Intraperitoneal), 25 ± 2.1 days in test [1] (Intravenous), 17 ± 1.4 days in test [1] (Per oral) and 21 ± 1.7 days in test [1] (Subcutaneous).
On to `O=C(O)c1sc2ccccc2c1Br` [Compound 1], for which the IC50 on purified PfENR [2] (setting [7]) turned out to be 1.68 ± 0.045 µM; in test [3] (setting [8]) it was 2.1 ± 0.4 µM.
The corresponding values for `COc1ccc(CNC(=O)c2sc3ccccc3c2Br)cc1` [Compound 5, N-(4-methoxybezyl)-3-bromobenzo[b]thiophene-2-carboxamide] are 31.99 ± 0.23 µM and 5.93 ± 0.3 µM.
Compound `O=C(NCc1ccc(C(F)(F)F)cc1)c1sc2ccccc2c1Br` [Compound 7, N-(4-trifluorobenzyl)-3-bromobenzo[b]thiophene-2-carboxamide] came in with a Ki on purified PfENR [4] of 86.1 nM. On purified PfENR [4] (inhibitor 0-750 nM), the “Binding behaviour from progress curves” value is reported as “slow tight binding behaviour”. Besides, the “Isomerization rate constant (k5 * 10^−2) (s^−1)” value on purified PfENR [4] (purified PfENR, progress curves) is 1.65 ± .023 10^−2 s^−1. Moreover, the koff on purified PfENR [4] (read-out: Dissociation rate constant (k6* 10^−3) (s^−1)) worked out at 0.0069 ± 3e-07 s⁻¹. For the same compound, in test [1], the “Relative efficacy in the route of administration study” value is recorded as “comparative activity to compound 6”. For the same compound, the “Mean Survival Days” value in test [1] (Intraperitoneal) is given as 21 ± 1.3 days; in test [1] (Intravenous) it was 24 ± 2.1 days; in test [1] (Per oral), 11 ± 0.9 days; in test [1] (Subcutaneous), 15 ± 1.2 days. Also, in the test “Tail flick latency test”, the “Anti-nociceptive response, tail flick latency assay” value is recorded as “better anti-nociceptive response than the Ibuprofen”. The IC50 at purified PfENR [2] (Inhibition of PfENR (IC50 μM)) turned out to be 0.463 ± 0.1 µM; in test [3] (Plasmodium falciparum, 3D7, Erythrocyte), 1.18 ± 0.2 µM. Also, in test [3], the “Stage of parasite growth arrest” value was “arrested at the trophozoite stage”. The “Parasites observed to be dead” value in test [3] is ~90%.
For the compound `O=C(NCCc1ccccc1)c1sc2ccccc2c1Br` [Compound 8, 3-bromo-N-(2-phenylethyl)-benzo[b]thiophene-2-carboxamide], in test [5], the “Mechanical hyperalgesia, paw withdrawal threshold” value is on record as “significantly reversed the mechanical hyperalgesia”. Further, in the test “Tail flick latency test”, the “Anti-nociceptive response, tail flick latency assay” value is “better anti-nociceptive response than the Ibuprofen”. Also, in test [6] (compounds 15 mg/kg b. wt. vs Ibuprofen 50 mg/kg b. wt.), the “Analgesic activity compared with Ibuprofen, hot plate” value is reported as “potent analgesic activity at much lower concentration than Ibuprofen”. The IC50 at purified PfENR [2] (setting [7]) is 54.98 ± 0.42 µM; in test [3] (setting [8]) it was 2.46 ± 0.7 µM.
Turning to `O=C(NCc1cccc2ccccc12)c1sc2ccccc2c1Br` [Compound 9, 3-bromo-N-(naphthalen-1-ylmethyl)-benzo[b]thiophene-2-carboxamide], the “Anti-nociceptive response, tail flick latency assay” value in “Tail flick latency test” is listed as “better anti-nociceptive response than the Ibuprofen”. For the same compound, the half-inhibitory concentration (IC50) on purified PfENR [2] (setting [7]) was determined as 52.56 ± 0.33 µM; in test [3] (setting [8]), 2.45 ± 0.9 µM.
Turning to `C=CCN(Cc1ccc(F)cc1)C(=O)c1sc2ccccc2c1Br` [Compound 10, 3-bromo-N-(4-fluorobenzyl)-N-(prop-2-en-1-yl)-benzo[b]thiophene-2-carboxamide], the “Mean Survival Days” value in test [1] (Intraperitoneal) is 11 ± 0.8 days; in test [1] (Intravenous, 5 mg/kg) it was 15 days and 15 ± 0.7 days; in test [1] (Per oral) it was 7 ± 1.2 days; in test [1] (Subcutaneous), 12 ± 1.6 days. Further, the “MPE index, hot plate latency assay” value in test [6] is “less latency in comparison to other derivatives”. Also, the figures for the IC50 (at purified PfENR [2] (setting [7]); in test [3] (setting [8])) were 51.98 ± 0.43 µM and 2.93 ± 1.2 µM, respectively. Also, the “Stage of parasite growth arrest” value in test [3] is given as “arrested after 48 hours at the trophozoite stage”. Moreover, the “Parasites observed to be dead” value in test [3] was 40%.
Turning to `C=CCN(Cc1ccc(C(F)(F)F)cc1)C(=O)c1sc2ccccc2c1Br` [Compound 11, 3-bromo-N-(prop-2-en-1-yl)-N-[4-(trifluoromethyl)benzyl]-1-benzo[b]thiophene-2-carboxamide], the “Mean Survival Days” value in test [1] (Intraperitoneal, 5 mg/kg) is listed as 10 ± 1.2 days; in test [1] (Intraperitoneal, listed as compound 11, 5 mg/kg), 10 days; in test [1] (Intravenous, 5 mg/kg) it was 16 ± 1.5 days; in test [1] (Intravenous, listed as compound 11, 5 mg/kg), 16 days; in test [1] (Per oral), 7 ± .6 days; in test [1] (Subcutaneous, 5 mg/kg), 14 ± 1.2 days. For the same compound, the “Mean Survival Days” value in test [1] (Subcutaneous, listed as compound 11, 5 mg/kg) is 14 days. The “MPE index, hot plate latency assay” value in test [6] was “less latency in comparison to other derivatives”. Further, the figures for the IC50 (on purified PfENR [2] (setting [7]); in test [3] (setting [8])) were 52.48 ± 0.22 µM and 1.3 ± 0.1 µM, respectively. Moreover, the “Stage of parasite growth arrest” value in test [3] is given as “arrested after 48 hours at the trophozoite stage”. Moreover, in test [3], the “Parasites observed to be dead” value is recorded as “around 70%”.
`CC(C)Cc1ccc(C(C)C(=O)O)cc1` (stereo not drawn) [Ibuprofen, reference compound]: the “Anti-nociceptive response, hot plate latency assay” value in test [6] (50 mg/kg b. wt., 60 minutes post administration) is recorded as “better anti-nociceptive effect compared to other NSAIDs”; in test [6] (30 minutes post administration, wistar rats) it was “better anti-nociceptive drug as compared to other NSAIDs”.
